Test: xn = mol fraction of the nth substance listed
Conditions: 101 kPa, Liquid; for mass density: Vibrating tube method

CCCC[n+]1cccc(C)c1.F[B-](F)(F)F [1-butyl-3-methylpyridinium tetrafluoroborate] + CO
Conditions	kinematic viscosity, 293.15 K [m2/s]	kinematic viscosity, 303.15 K [m2/s]	kinematic viscosity, 313.15 K [m2/s]	kinematic viscosity, 323.15 K [m2/s]	mass density, 293.15 K [kg/m3]	mass density, 303.15 K [kg/m3]	mass density, 313.15 K [kg/m3]	mass density, 323.15 K [kg/m3]
x1 = 0.0481	1.03e-06	8.95e-07	7.88e-07	7e-07	876.92	868.11	858.9	850
x1 = 0.0975	1.45e-06	1.22e-06	1.06e-06	9.17e-07	937.91	929.46	920.91	912.45
x1 = 0.1973	2.72e-06	2.2e-06	1.88e-06	1.61e-06	1017.57	1009.42	1001.41	993.31
x1 = 0.3001	4.45e-06	3.44e-06	3.04e-06	2.54e-06	1067.85	1059.92	1052.02	1044.13
x1 = 0.4013	7.03e-06	5.64e-06	4.73e-06	3.95e-06	1101.07	1093.38	1085.61	1077.93
x1 = 0.4969	1.2e-05	9.04e-06	7.23e-06	5.68e-06	1123.81	1116.36	1108.79	1101.32
x1 = 0.5985	1.98e-05	1.45e-05	1.08e-05	8.38e-06	1142.18	1134.95	1127.63	1120.38
x1 = 0.6972	3.36e-05	2.31e-05	1.69e-05	1.27e-05	1156.2	1149.14	1142.07	1134.99
x1 = 0.7942	5.92e-05	3.53e-05	2.51e-05	1.76e-05	1167.41	1160.48	1153.59	1146.64
x1 = 0.8427	7.8e-05	4.59e-05	3.12e-05	2.13e-05	1172.3	1165.41	1158.59	1151.69
x1 = 0.8978	0.00011	6.28e-05	4.03e-05	2.67e-05	1177.37	1170.53	1163.75	1156.91
x1 = 0.9689	0.000171	9.3e-05	5.65e-05	3.61e-05	1183.27	1176.47	1169.72	1162.95

CCCC[n+]1ccc(C)cc1.F[B-](F)(F)F [1-butyl-4-methylpyridinium tetrafluoroborate] + CO
Conditions	kinematic viscosity, 293.15 K [m2/s]	kinematic viscosity, 303.15 K [m2/s]	kinematic viscosity, 313.15 K [m2/s]	kinematic viscosity, 323.15 K [m2/s]	mass density, 293.15 K [kg/m3]	mass density, 303.15 K [kg/m3]	mass density, 313.15 K [kg/m3]	mass density, 323.15 K [kg/m3]
x1 = 0.0477	1.02e-06	8.83e-07	7.78e-07	6.88e-07	876.71	867.94	858.74	849.6
x1 = 0.0958	1.42e-06	1.2e-06	1.02e-06	8.92e-07	936.07	927.56	918.89	910.02
x1 = 0.2055	2.83e-06	2.29e-06	1.91e-06	1.62e-06	1021.53	1013.48	1005.4	997.15
x1 = 0.2889	4.57e-06	3.6e-06	2.92e-06	2.44e-06	1062.26	1054.51	1046.65	1038.82
x1 = 0.3846	7.5e-06	5.73e-06	4.53e-06	3.7e-06	1095.45	1087.98	1080.32	1072.88
x1 = 0.4866	1.31e-05	9.56e-06	7.3e-06	5.78e-06	1121.16	1113.92	1106.46	1099.31
x1 = 0.589	2.12e-05	1.58e-05	1.15e-05	8.6e-06	1140.6	1133.51	1126.23	1119.29
x1 = 0.7073	3.61e-05	2.59e-05	1.9e-05	1.3e-05	1157.8	1150.84	1143.72	1136.94
x1 = 0.7963	6.42e-05	4.11e-05	2.8e-05	1.93e-05	1168.12	1161.22	1154.18	1147.48
x1 = 0.8459	8.43e-05	5.16e-05	3.41e-05	2.29e-05	1173.12	1166.24	1159.23	1152.56
x1 = 0.8947	0.00012	6.92e-05	4.41e-05	2.85e-05	1177.58	1170.73	1163.73	1157.09
x1 = 0.9465	0.000168	9.14e-05	5.59e-05	3.56e-05	1181.89	1175.06	1168.07	1161.45

Source: the NIST ThermoML archive (doi:10.1021/je300557g)
